The values that follow come from patent US20230330234A1, “HYPERBRANCHED POLYESTER POLYOL DERIVATIVE AS DRUG SOLUBILIZER” (FREIE UNIVERSITÄT BERLIN, priority 2020, published 2023).

Values after ≈ are worked out from the molar mass of the structure shown. Where two headings read alike, the source gives them in different places. Bounds are passed on as bounds.

One data set is described as follows: physchem. The note with it: aqueous with cosolvent or surfactant or cyclodextrin, thermodynamic from solid.

A word on the solubility: it is how much of the substance goes into solution per volume. As for `CC(C)(C)C[C@@H]1N[C@@H](C(=O)N[C@H]2CC[C@H](O)CC2)[C@H](c2cccc(Cl)c2F)[C@]12C(=O)Nc1cc(Cl)ccc12` [SAR405838], the solubility at 18 h in “physchem” is over 300 µg/mL. For the same molecule, in the data set “Solubility in water” (Solubility in water), the concentration in solution (solubility) was 2 µg/mL (≈ 3.56 µM). Taken in the same sequence, the figures for `COc1ncc(-c2nc3c(n2C(C)C)[C@H](c2ccc(Cl)cc2)N(c2cc(Cl)cn(C)c2=O)C3=O)c(OC)n1` [Siremadlin] were over 300 µg/mL and 1 µg/mL (≈ 1.8 µM). Taken in the same sequence, the figures for `Nc1ccccc1NC(=O)c1ccc(CNc2nccc(-c3cccnc3)n2)cc1` [Mocetinostat] were over 300 µg/mL and 8 µg/mL (≈ 20.2 µM). Taken in the same sequence, the figures for `Cc1nc(NC(=O)N2CCC[C@H]2C(N)=O)sc1-c1ccnc(C(C)(C)C(F)(F)F)c1` [Alpelisib] were over 300 µg/mL and 5 µg/mL (≈ 11.3 µM). As to `Cn1ncc(Cl)c1-c1cc(C(=O)N[C@H](CN)Cc2cccc(F)c2)sc1Cl` [GSK2110183], the solubility at 18 h in “physchem” is over 300 µg/mL. The same molecule gave a solubility in the data set “Solubility in water” (Solubility in water) of 7 µg/mL (≈ 16.4 µM). Taken in the same sequence, the figures for `O=C(/C=C/c1cccc(S(=O)(=O)Nc2ccccc2)c1)NO` [Belinostat] were over 300 µg/mL and 30 µg/mL (≈ 94.2 µM).

With `Cn1nccc1Nc1nccc(-c2ccn([C@H](CO)c3ccc(Cl)c(F)c3)c(=O)c2)n1` [Ravoxertinib], the solubility at 18 h in “physchem” was over 300 µg/mL. Also, the concentration in solution in the data set “Solubility in water” (Solubility in water) (solubility) came to 4 µg/mL (≈ 9.07 µM). The matching figures for `CC(C)NC[C@@H](C(=O)N1CCN(c2ncnc3c2[C@H](C)C[C@H]3O)CC1)c1ccc(Cl)cc1` [Ipatasertib]: over 300 µg/mL and 50 µg/mL (≈ 109 µM). Taken in the same sequence, the figures for `Cc1ccc(C(=O)Nc2ccc(CN3CCN(C)CC3)c(C(F)(F)F)c2)cc1C#Cc1cnc2cccnn12` [Ponatinib] were over 300 µg/mL and 2 µg/mL (≈ 3.76 µM). Taken in the same sequence, the figures for `CO[C@@H](C)Cn1c(=O)n(C)c2cnc3ccc(-c4cncc(C(C)(C)O)c4)cc3c21` [LY3023414] were over 300 µg/mL and 80 µg/mL (≈ 197 µM). As to `C=CC(=O)N1CCC[C@@H](n2nc(-c3ccc(Oc4ccccc4)cc3)c3c(N)ncnc32)C1` [Ibrutinib], the solubility at 18 h in the data set “physchem” was over 300 µg/mL. Further, in the data set “Solubility in water” (Solubility in water), the concentration in solution (solubility) came to 20 µg/mL (≈ 45.4 µM). For the molecule `N#CC[C@H](C1CCCC1)n1cc(-c2ncnc3[nH]ccc23)cn1` [Ruxolitinib], the solubility at 18 h in the data set “physchem” was over 300 µg/mL. In “physchem”, `O=C(c1ccc(F)c(F)c1Nc1ccc(I)cc1F)N1CC(O)([C@@H]2CCCCN2)C1` [Cobimetinib] came in with a solubility at 18 h of over 300 µg/mL. In addition, the solubility in “Solubility in water” (Solubility in water) is 40 µg/mL (≈ 75.3 µM). The matching figures for `Cn1ncnc1[C@H]1c2n[nH]c(=O)c3cc(F)cc(c23)N[C@@H]1c1ccc(F)cc1` [Talazoparib]: over 300 µg/mL and 100 µg/mL (≈ 263 µM). The matching figures for `C[C@H]1Oc2cc(cnc2N)-c2c(nn(C)c2C#N)CN(C)C(=O)c2ccc(F)cc21` [Lorlatinib]: over 300 µg/mL and 100 µg/mL (≈ 246 µM).

As to `COc1cc(C(=O)O)ccc1NC(=O)[C@@H]1N[C@@H](CC(C)(C)C)[C@](C#N)(c2ccc(Cl)cc2F)[C@H]1c1cccc(Cl)c1F` [Idasanutlin], in “physchem”, the solubility at 18 h is over 300 µg/mL. Further, the concentration in solution in “Solubility in water” (Solubility in water) (solubility) was 1 µg/mL (≈ 1.62 µM). Taken in the same sequence, the figures for `Cn1ncc(Cl)c1-c1cc(C(=O)N[C@H](CN)Cc2ccc(F)c(F)c2)oc1Cl` [Uprosertib] were over 300 µg/mL and 30 µg/mL (≈ 69.9 µM). Taken in the same sequence, the figures for `Cn1cnc2c(F)c(Nc3ccc(Br)cc3F)c(C(=O)NOCCO)cc21` [Binimetinib] were over 300 µg/mL and 50 µg/mL (≈ 113 µM). `CNC(=O)c1ccccc1Sc1ccc2c(/C=C/c3ccccn3)n[nH]c2c1` [Axitinib] returned a solubility at 18 h in the data set “physchem” of over 300 µg/mL. The Solubility in water in “Solubility in water” is 0.5 µg/mL (≈ 1.29 µM). `O=C(c1cc(Cc2n[nH]c(=O)c3ccccc23)ccc1F)N1CCN(C(=O)C2CC2)CC1` [Olaparib]: in “physchem”, the solubility at 18 h is over 300 µg/mL. Besides, the concentration in solution in “Solubility in water” (Solubility in water) (solubility) was 120 µg/mL (≈ 276 µM). Taken in the same sequence, the figures for `Cn1cnc2c(F)c(Nc3ccc(Br)cc3Cl)c(C(=O)NOCCO)cc21` [Selumetinib] were over 300 µg/mL and 40 µg/mL (≈ 87.4 µM). In the case of `COc1cc(/C=C/C(=O)CC(=O)/C=C/c2ccc(O)c(OC)c2)ccc1O` [Curcumin], the solubility at 18 h in the data set “physchem” is under 100 µg/mL. Besides, the Solubility in water in “Solubility in water” worked out at 6 µg/mL (≈ 16.3 µM). In the data set “physchem”, `CC(C)C[C@H](NC(=O)[C@H](Cc1ccccc1)NC(=O)c1cnccn1)B(O)O` [Bortezomib] registered a solubility at 18 h of over 300 µg/mL. The molecule further registered a solubility in “Solubility in water” (Solubility in water) of 50 µg/mL (≈ 130 µM). The matching figures for `COc1cc2ncnc(Nc3ccc(F)c(Cl)c3)c2cc1NC(=O)/C=C/CN1CCCCC1` [Dacomitinib]: over 300 µg/mL and 9 µg/mL (≈ 19.2 µM). In the data set “physchem”, `CN1CCN(c2ccc(C(=O)Nc3n[nH]c4ccc(Cc5cc(F)cc(F)c5)cc34)c(NC3CCOCC3)c2)CC1` [Entrectinib] displayed a solubility at 18 h of over 300 µg/mL. Besides, in the data set “Solubility in water” (Solubility in water), the solubility came to 9 µg/mL (≈ 16.1 µM). The matching figures for `Cc1cn(-c2cc(NC(=O)c3ccc(C)c(Nc4nccc(-c5cccnc5)n4)c3)cc(C(F)(F)F)c2)cn1` [Nilotinib]: over 300 µg/mL and 2 µg/mL (≈ 3.78 µM).

On to `NC(=O)c1cccc2cn(-c3ccc([C@@H]4CCCNC4)cc3)nc12` [Niraparib], for which the solubility at 18 h in “physchem” is over 300 µg/mL. In addition, in “Solubility in water” (Solubility in water), the solubility was found to be 10 µg/mL (≈ 31.2 µM). The matching figures for `CCN1[C@@H](C(=O)NC23CCC(C(=O)O)(CC2)CC3)[C@H](c2cccc(Cl)c2F)[C@]2(C(=O)Nc3cc(Cl)ccc32)C12CCCCC2` [APG-115]: over 300 µg/mL and 2 µg/mL (≈ 3.11 µM). `Nc1ncccc1-c1nc2ccc(-c3ccccc3)nc2n1-c1ccc(C2(N)CCC2)cc1` [Miransertib] showed a solubility at 18 h in the data set “physchem” of over 300 µg/mL. In “Solubility in water”, the concentration in solution (solubility) was 60 µg/mL (≈ 139 µM).

In the data set “physchem”, `COc1cc2nccc(Oc3ccc(NC(=O)C4(C(=O)Nc5ccc(F)cc5)CC4)cc3)c2cc1OC` [Cabozantinib] yielded a solubility at 18 h of over 300 µg/mL. This molecule displayed a solubility in the data set “Solubility in water” (Solubility in water) of 2 µg/mL (≈ 3.99 µM).

In “physchem”, `CC(C)Nc1cc(-c2c[nH]c(C(=O)N[C@H](CO)c3cccc(Cl)c3)c2)c(Cl)cn1` [Ulixertinib] registered a solubility at 18 h of over 300 µg/mL. In the data set “Solubility in water” (Solubility in water), this molecule showed a solubility of 4 µg/mL (≈ 9.23 µM).

Regarding `CNC(=O)c1cc(Oc2ccc(NC(=O)Nc3ccc(Cl)c(C(F)(F)F)c3)c(F)c2)ccn1` [Regorafenib], in the data set “physchem”, the solubility at 18 h is over 300 µg/mL. In addition, the Solubility in water in the data set “Solubility in water” turned out to be 1 µg/mL (≈ 2.07 µM). In the data set “physchem”, `CNCc1ccc(-c2[nH]c3cc(F)cc4c3c2CCNC4=O)cc1` [Rucaparib] showed a solubility at 18 h of over 300 µg/mL. The molecule further came in with a solubility in the data set “Solubility in water” (Solubility in water) of 10 µg/mL (≈ 30.9 µM). `CCN(CCCOc1ccc2c(Nc3cc(CC(=O)Nc4cccc(F)c4)n[nH]3)ncnc2c1)CCOP(=O)(O)O` [Barasertib] had a solubility at 18 h in “physchem” of over 300 µg/mL. In addition, the solubility in the data set “Solubility in water” (Solubility in water) is 50 µg/mL (≈ 85.1 µM).

The molecule `COc1cc(Nc2c(C#N)cnc3cc(OCCCN4CCN(C)CC4)c(OC)cc23)c(Cl)cc1Cl` [Bosutinib] gave a solubility at 18 h in “physchem” of over 300 µg/mL. This molecule also gave a solubility in “Solubility in water” (Solubility in water) of 10 µg/mL (≈ 18.9 µM). Taken in the same sequence, the figures for `C#Cc1cccc(Nc2ncnc3cc(OCCOC)c(OCCOC)cc23)c1` [Erlotinib] were over 300 µg/mL and 10 µg/mL (≈ 25.4 µM). In turn, `Cc1ccc(Nc2nccc(N(C)c3ccc4c(C)n(C)nc4c3)n2)cc1S(N)(=O)=O` [Pazopanib] had a solubility at 18 h in the data set “physchem” of over 300 µg/mL. The molecule also had a Solubility in water in the data set “Solubility in water” of 40 µg/mL (≈ 91.4 µM). In turn, `CC(C)Cc1ccc(C(C)C(=O)O)cc1` (centres unmarked) [Ibuprofen] gave a solubility at 18 h in “physchem” of under 100 µg/mL. Take `COc1ccc([C@@H](O)c2cc(-c3ncnc4cc(N5CCOCC5)ccc34)c(F)cc2Cl)nn1` [Nedisertib]: the solubility at 18 h in the data set “physchem” is over 300 µg/mL. In “Solubility in water” (Solubility in water), this molecule registered a solubility of 80 µg/mL (≈ 166 µM). The matching figures for `COC(=O)N[C@@H](C)CNc1nccc(-c2cn(C(C)C)nc2-c2cc(Cl)cc(NS(C)(=O)=O)c2F)n1` [Encorafenib]: over 300 µg/mL and 10 µg/mL (≈ 18.5 µM). For the molecule `CCOc1cc2ncc(C#N)c(Nc3ccc(OCc4ccccn4)c(Cl)c3)c2cc1NC(=O)/C=C/CN(C)C` [Neratinib], in the data set “physchem”, the solubility at 18 h is over 300 µg/mL. In the data set “Solubility in water” (Solubility in water), the solubility came out at 6 µg/mL (≈ 10.8 µM). Taken in the same sequence, the figures for `CCCc1cc(C)[nH]c(=O)c1CNC(=O)c1cc(-c2ccnc(N3CCN(C)CC3)c2)cc2c1cnn2C(C)C` [GSK343] were over 300 µg/mL and 1 µg/mL (≈ 1.85 µM). In turn, `CN(C)C/C=C/C(=O)Nc1cc2c(Nc3ccc(F)c(Cl)c3)ncnc2cc1O[C@H]1CCOC1` [Afatinib] had a solubility at 18 h in the data set “physchem” of over 300 µg/mL. The molecule also yielded a solubility in the data set “Solubility in water” (Solubility in water) of 10 µg/mL (≈ 20.6 µM). The matching figures for `COc1ccc(-c2nc(N3CCOCC3)c3sc(CN(C)c4ncc(C(=O)NO)cn4)cc3n2)cn1` [Fimepinostat]: over 300 µg/mL and 2 µg/mL (≈ 3.93 µM). In “physchem”, `C[C@@H]1C[C@H]2[C@@H]3CCC4=CC(=O)C=C[C@]4(C)[C@@]3(F)[C@@H](O)C[C@]2(C)[C@@]1(O)C(=O)CO` [Dexamethasone] registered a solubility at 18 h of under 100 µg/mL. On to `CN1CC[C@@H](NC(=O)Nc2ccc(C#N)cc2)C[C@@H]1c1nc2ccccc2[nH]1` [Glasdegib], for which, in the data set “physchem”, the solubility at 18 h was over 300 µg/mL. The solubility in the data set “Solubility in water” (Solubility in water) came out at 50 µg/mL (≈ 134 µM).

For `Cc1nc(Nc2ncc(C(=O)Nc3c(C)cccc3Cl)s2)cc(N2CCN(CCO)CC2)n1` [Dasatinib], in the data set “physchem”, the solubility at 18 h was over 300 µg/mL. For `CN(C)C1CCN(C(=O)c2ccc(NC(=O)Nc3ccc(-c4nc(N5CCOCC5)nc(N5CCOCC5)n4)cc3)cc2)CC1` [Gedatolisib], the solubility at 18 h in the data set “physchem” is over 300 µg/mL. The molecule also displayed a solubility in “Solubility in water” (Solubility in water) of 40 µg/mL (≈ 65 µM). The matching figures for `Nc1ccccc1NC(=O)c1ccc(CNC(=O)OCc2cccnc2)cc1` [Entinostat]: over 300 µg/mL and 5 µg/mL (≈ 13.3 µM). For `C=CC(=O)Nc1cc(Nc2nccc(-c3cn(C)c4ccccc34)n2)c(OC)cc1N(C)CCN(C)C` [Osimertinib], the solubility at 18 h in “physchem” is over 300 µg/mL. The molecule further returned a solubility in “Solubility in water” (Solubility in water) of 20 µg/mL (≈ 40 µM). The matching figures for `CCCS(=O)(=O)Nc1ccc(F)c(C(=O)c2c[nH]c3ncc(-c4ccc(Cl)cc4)cc23)c1F` [Vemurafenib]: over 300 µg/mL and 0.3 µg/mL (≈ 0.612 µM).
